# Measured values published in patent US11872312B2, “Neuroprotective liposome compositions and methods for treatment of stroke” (The Board of Regents of The University of Texas System, priority 2012, dated 2024).
# Columns and labels:
# [1] = system: murine embryonic stem cells; test: LDH release cytotoxicity test in stem cells; conditions: 3 mg ELIP/30 μl gas/ml for 4 hours; H2O2 10 mM for 2 hours
# Description: Cells were treated with Xe-reagents (3 mg ELIP/30 μl gas/ml) and control medium for 4 hours, and 2 hours before the end of cultures; 10 mM H2O2 was added.
# The cell viability was determined by assessing the release of LDH.
# [2] = target: tPA activity on porcine blood clot (Homo sapiens, UniProt P00750); test: Thrombolytic efficiency of tPA on porcine blood clot in presence of Xe-ELIP or free Xe; conditions: 30 minute incorporation with tPA
# Description: Neuroprotective combination therapy may minimize the harmful effects of ischemic neuronal damage. […] The thrombolytic effect of tPA was inhibited after 30 minute incorporation with free Xe (Xe saturated solution).
# tPA activity on porcine blood clot, sequence (P00750 36-562): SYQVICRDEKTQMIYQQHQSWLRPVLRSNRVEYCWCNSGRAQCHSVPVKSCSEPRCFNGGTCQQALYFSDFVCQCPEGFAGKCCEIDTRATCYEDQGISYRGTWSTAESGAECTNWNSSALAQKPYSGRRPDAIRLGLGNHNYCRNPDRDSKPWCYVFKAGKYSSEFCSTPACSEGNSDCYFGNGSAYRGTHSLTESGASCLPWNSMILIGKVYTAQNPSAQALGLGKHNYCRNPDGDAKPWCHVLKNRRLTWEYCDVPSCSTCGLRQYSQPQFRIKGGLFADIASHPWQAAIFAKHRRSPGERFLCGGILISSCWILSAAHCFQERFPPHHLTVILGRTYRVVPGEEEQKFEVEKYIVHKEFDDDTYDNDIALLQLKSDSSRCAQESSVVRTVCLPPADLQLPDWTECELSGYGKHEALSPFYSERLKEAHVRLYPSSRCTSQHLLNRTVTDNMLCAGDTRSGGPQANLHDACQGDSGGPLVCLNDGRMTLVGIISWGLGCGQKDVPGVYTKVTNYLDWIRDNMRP
smiles,measurement,setting,value
"OO [H2O2, Hydrogen Peroxide]",LDH release (cytotoxicity),[1],significant LDH release
[Xe] [free Xe],thrombolytic effect of tPA,[2],inhibited
